Measurements taken from PubChem BioAssay AID1745844 (Carcinogenic Potency Database (CPDB), 2022).
Activity calls are given as the source filed them. No rule for the calls is given here.

Test system: rodent lifetime carcinogenesis bioassay, tumor incidence TD50
Assay: chronic cancer bioassays in animals – CPDB, compiled studies (AID 1745844)

## Nc1ccccc1-c1ccccc1
mouse, strain B6C3F1, females, in feed, site: all sites, lesion: angiosarcoma + hemangioma, dosed 103 weeks, study length 104 weeks
  TD50: 1120 mg/kg/day
mouse, strain B6C3F1, females, in feed, site: all sites, lesion: angiosarcoma, dosed 103 weeks, study length 104 weeks
  TD50: 1280 mg/kg/day
mouse, strain B6C3F1, females, in feed, site: any site (literature study), lesion: several types, types named in the paper, dosed 103 weeks, study length 104 weeks
  TD50: 1880 mg/kg/day
mouse, strain B6C3F1, females, in feed, site: liver, lesion: hepatocellular adenoma + hepatocellular carcinoma + neoplastic nodule, dosed 103 weeks, study length 104 weeks
  TD50: 2000 mg/kg/day
mouse, strain B6C3F1, females, in feed, site: lung, lesion: alveolar/bronchiolar adenoma + alveolar/bronchiolar carcinoma, dosed 103 weeks, study length 104 weeks
  TD50: 26100 mg/kg/day
mouse, strain B6C3F1, males, in feed, site: all sites, lesion: angiosarcoma + hemangioma + hemangiosarcoma, dosed 103 weeks, study length 104 weeks
  TD50: 1250 mg/kg/day
mouse, strain B6C3F1, males, in feed, site: all sites, lesion: angiosarcoma + hemangiosarcoma, dosed 103 weeks, study length 104 weeks
  TD50: 1810 mg/kg/day
mouse, strain B6C3F1, males, in feed, site: any site (literature study), lesion: several types, types named in the paper, dosed 103 weeks, study length 104 weeks
  TD50: 720 mg/kg/day
mouse, strain B6C3F1, males, in feed, site: liver, lesion: hepatocellular adenoma + hepatocellular carcinoma + neoplastic nodule, dosed 103 weeks, study length 104 weeks
  TD50: 1700 mg/kg/day
rat, strain Fischer 344, females, in feed, site: any site (literature study), lesion: several types, types named in the paper, dosed 103 weeks, study length 105 weeks
  carcinogen call: negative (inactive)
rat, strain Fischer 344, females, in feed, site: liver, lesion: hepatocellular adenoma + hepatocellular carcinoma + neoplastic nodule, dosed 103 weeks, study length 105 weeks
  TD50: 363 mg/kg/day
rat, strain Fischer 344, males, in feed, site: any site (literature study), lesion: several types, types named in the paper, dosed 103 weeks, study length 104 weeks
  carcinogen call: negative (inactive)

## Cc1cnc(NC(=O)C2=C(O)c3ccccc3S(=O)(=O)N2C)s1
rat, strain Wistar, females, by gavage, site: stomach, lesion: one or several types, types not named, dosed 52 weeks, study length 52 weeks
  carcinogen call: negative (inactive)
rat, strain Wistar, males, by gavage, site: stomach, lesion: one or several types, types not named, dosed 52 weeks, study length 52 weeks
  carcinogen call: negative (inactive)

## CC(C)(C)c1cc(C(C)(C)C)c(O)c(C(C)(C)C)c1
rat, strain Wistar, females, in feed, site: liver, lesion: one or several types, types not named, dosed 52 weeks, study length 52 weeks
  carcinogen call: negative (inactive)
rat, strain Wistar, females, in feed, site: liver, lesion: one or several types, types not named, dosed 78 weeks, study length 78 weeks
  carcinogen call: negative (inactive)
rat, strain Wistar, females, in feed, site: liver, lesion: one or several types, types not named, dosed 104 weeks, study length 104 weeks
  carcinogen call: negative (inactive)
rat, strain Wistar, males, in feed, site: liver, lesion: one or several types, types not named, dosed 52 weeks, study length 52 weeks
  carcinogen call: negative (inactive)
rat, strain Wistar, males, in feed, site: liver, lesion: one or several types, types not named, dosed 78 weeks, study length 78 weeks
  carcinogen call: negative (inactive)
rat, strain Wistar, males, in feed, site: liver, lesion: one or several types, types not named, dosed 104 weeks, study length 104 weeks
  carcinogen call: negative (inactive)

## CCCCC(CC)COP(=O)(OCC(CC)CCCC)OCC(CC)CCCC (centres undefined)
mouse, strain B6C3F1, females, by gavage, site: liver, lesion: hepatocellular adenoma + hepatocellular carcinoma + neoplastic nodule, dosed 103 weeks, study length 104 weeks
  TD50: 2220 mg/kg/day
mouse, strain B6C3F1, females, by gavage, site: liver, lesion: hepatocellular adenoma + hepatocellular carcinoma, dosed 103 weeks, study length 104 weeks
  TD50: 2220 mg/kg/day
mouse, strain B6C3F1, females, by gavage, site: liver, lesion: hepatocellular carcinoma, dosed 103 weeks, study length 104 weeks
  TD50: 2560 mg/kg/day
mouse, strain B6C3F1, females, by gavage, site: lung, lesion: alveolar/bronchiolar adenoma + alveolar/bronchiolar carcinoma, dosed 103 weeks, study length 104 weeks
  TD50: 13700 mg/kg/day
mouse, strain B6C3F1, males, by gavage, site: any site (literature study), lesion: several types, types named in the paper, dosed 103 weeks, study length 104 weeks
  carcinogen call: negative (inactive)
mouse, strain B6C3F1, males, by gavage, site: liver, lesion: hepatocellular adenoma + hepatocellular carcinoma + neoplastic nodule, dosed 103 weeks, study length 104 weeks
  TD50: 9000 mg/kg/day
rat, strain Fischer 344, females, by gavage, site: any site (literature study), lesion: several types, types named in the paper, dosed 103 weeks, study length 104 weeks
  TD50: 230000 mg/kg/day (inactive)
rat, strain Fischer 344, males, by gavage, site: adrenal gland, lesion: pheochromocytoma + pheochromocytoma, malignant, dosed 103 weeks, study length 104 weeks
  TD50: 5290 mg/kg/day
rat, strain Fischer 344, males, by gavage, site: adrenal gland, lesion: pheochromocytoma, dosed 103 weeks, study length 104 weeks
  TD50: 5290 mg/kg/day
rat, strain Fischer 344, males, by gavage, site: any site (literature study), lesion: several types, types named in the paper, dosed 103 weeks, study length 104 weeks
  TD50: 14200 mg/kg/day
rat, strain Fischer 344, males, by gavage, site: thyroid gland + thyroid follicle, lesion: follicular-cell adenoma + cystadenoma, NOS, dosed 103 weeks, study length 104 weeks
  TD50: 28000 mg/kg/day
rat, strain Fischer 344, males, by gavage, site: thyroid gland + thyroid follicle, lesion: follicular-cell adenoma + follicular-cell carcinoma + cystadenoma, NOS, dosed 103 weeks, study length 104 weeks
  TD50: 16700 mg/kg/day

## S=C=Nc1ccccc1
mouse, strain B6AKF1, females, oral dosing, site: any site (literature study), lesion: several types, types named in the paper, dosed 76 weeks, study length 76 weeks
  TD50: 39.4 mg/kg/day (inactive)
mouse, strain B6AKF1, females, oral dosing, site: liver, lesion: hemangioma, dosed 76 weeks, study length 76 weeks
  TD50: 138 mg/kg/day (inactive)
mouse, strain B6AKF1, females, oral dosing, site: lung, lesion: adenoma, dosed 76 weeks, study length 76 weeks
  carcinogen call: negative (inactive)
mouse, strain B6AKF1, males, oral dosing, site: any site (literature study), lesion: several types, types named in the paper, dosed 76 weeks, study length 76 weeks
  carcinogen call: negative (inactive)
mouse, strain B6AKF1, males, oral dosing, site: liver, lesion: hepatoma, dosed 76 weeks, study length 76 weeks
  carcinogen call: negative (inactive)
mouse, strain B6AKF1, males, oral dosing, site: lung, lesion: adenoma, dosed 76 weeks, study length 76 weeks
  carcinogen call: negative (inactive)
mouse, strain B6C3F1, females, oral dosing, site: any site (literature study), lesion: one or several types, types not named, dosed 76 weeks, study length 76 weeks
  carcinogen call: negative (inactive)
mouse, strain B6C3F1, females, oral dosing, site: liver, lesion: hepatoma, dosed 76 weeks, study length 76 weeks
  carcinogen call: negative (inactive)
mouse, strain B6C3F1, females, oral dosing, site: lung, lesion: several types, types named in the paper, dosed 76 weeks, study length 76 weeks
  carcinogen call: negative (inactive)
mouse, strain B6C3F1, males, oral dosing, site: any site (literature study), lesion: several types, types named in the paper, dosed 76 weeks, study length 76 weeks
  TD50: 40.2 mg/kg/day (inactive)
mouse, strain B6C3F1, males, oral dosing, site: liver, lesion: hepatoma, dosed 76 weeks, study length 76 weeks
  TD50: 128 mg/kg/day (inactive)
mouse, strain B6C3F1, males, oral dosing, site: lung, lesion: adenoma, dosed 76 weeks, study length 76 weeks
  TD50: 128 mg/kg/day (inactive)

## CCSCC[C@H](N)C(=O)O
rat, strain Wistar, males, in feed, site: liver, lesion: carcinoma, dosed 34 weeks, study length 52 weeks
  carcinogen call: positive

## O=C1C=C(N2CC2)C(=O)C(N2CC2)=C1N1CC1
rat, strain BR 46, males, i.v., site: any site (literature study), lesion: benign tumor, dosed 52 weeks, study length 104 weeks
  TD50: 0.032 mg/kg/day
rat, strain BR 46, males, i.v., site: any site (literature study), lesion: malignant tumor, dosed 52 weeks, study length 104 weeks
  TD50: 0.00677 mg/kg/day
rat, strain BR 46, males, i.v., site: any site (literature study), lesion: several types, types named in the paper, dosed 52 weeks, study length 104 weeks
  TD50: 0.00504 mg/kg/day
rat, strain BR 46, males, i.v., site: liver, lesion: liver-cell carcinoma, dosed 52 weeks, study length 104 weeks
  TD50: 0.0653 mg/kg/day
